Assay results as given in patent US20220265655A1, “METHODS OF TREATING INFLAMMATORY DISEASES” (Ribon Therapeutics, Inc., priority 2021, published 2022).

Key:
[1] = tested on: BLM-induced pulmonary fibrosis model
Procedure: BLM-induced pulmonary fibrosis is an established disease model for IPF. In the model, alveolar injury and interstitial inflammation/fibrosis are induced by intracheal BLM administration.
Formulations (50 μL/vial) were kept for dose verification on the first and last dosing day (2 vials each, total 4 vials).
At Day 0, 40 mice were induced to develop pulmonary fibrosis by a single intratracheal administration of bleomycin hydrochloride (BLM, Nippon Kayaku, Japan) in PBS at a dose of 3.0 mg/kg, in a volume of 50 μL per animal using Microsprayer® (Penn-Century, USA) under a mixture of medetomidine (0.75 mg/kg), midazolam (4 mg/kg) and butorphanol (5 mg/kg) anesthesia by intraperitoneal administration in a volume of 10 mL/kg. […] Five mice were intratracheally administered PBS, instead of the BLM, which served as the Sham group.
Tofacitinib was administered orally at a dose of 50 mg/kg in a volume of 10 mL/kg twice daily (total of 100 mg/kg/day).
The viability, clinical signs and behavior were monitored daily. Body weight was recorded daily from Day 0. Dosing volume was adjusted based on the latest body weight. […] The animals were sacrificed on Day 14 by exsanguination through the abdominal vena cava under a mixture of medetomidine, midazolam and butorphanol anesthesia. The time of the dosing and termination was recorded. The left and post-caval lobe weight for all mice were recorded.
For Group 2-4, BALF samples were collected by flushing the lung via the trachea with sterile PBS three times (1st BALF, 2nd BALF and 3rd BALF, 0.8 mL each) at sacrifice under a mixture of medetomidine, midazolam and butorphanol anesthesia. The 1st BALF was centrifuged at 3,000×g for 5 min at 4° C. and the supernatant was collected and stored at −80° C. The cell pellet from the first fraction (1st BALF) was resuspended and added to the remaining fractions of lavage fluid (2nd and 3rd BALF). The total BALF was centrifuged at 1,000×g for 5 min at 4° C. and the supernatant was removed. Ammonium-Chloride-Potassium (ACK) lysing buffer was added to the pellet and washed for lysis of erythrocytes. After addition of cold PBS, the fluid was centrifuged at 1,000×g for 3 min at 4° C. and the supernatant was removed. Resuspended in PBS and total cell number of BALF was counted using a hemocytometer (C-Chip disposable hemocytometer, Digital Bio). After counting the total cells, the cell suspension was re-suspended in PBS to 5×10^5 cells/mL. A smear sample was then prepared by spotting 100 μL of cell suspension onto slides, and air-dried using a dryer on cool setting.
Indwelling needle was inserted into trachea and connected to instillation route of syringe. The syringe was loaded with 10% neutral buffered formalin and kept at the height of 20 cm. […] The three unfixed lobes were washed with cold saline and measured wet weight.
To quantify lung hydroxyproline content, frozen left lung samples were processed by an acid hydrolysis method as follows. […] AC buffer (2.2M acetic acid/0.48M citric acid, 200 μL) was added to the samples, followed by centrifugation to collect the supernatant. […] The samples were then mixed with Ehrlich's solution (300 μL) and heated at 65° C. for 20 minutes to develop the color. After samples were cooled on ice and centrifuged to remove precipitates, the optical density of each supernatant was measured at 560 nm. The concentrations of hydroxyproline were calculated from the hydroxyproline standard curve. Lung hydroxyproline levels were expressed as […] per left lung.
For Group 2-4, BALF IL-4, IL-6, IL-10 and IL-17 levels were quantified by Quantikine enzyme linked immunosorbent assay kits (code. M4000B for IL-4, code. M6000B for IL-6, code. M1000B for IL-10, code. M1700 for IL-17, R&D systems) according to manufacturer instructions.
For Masson's Trichrome staining, the sections were deparaffinized and rehydrated, followed by re-fixation with Bouin's solution for 15 min.

[2] = tested on: OXZ-induced colitis mouse model; conditions: Compound 1 1,000 mg/kg PO BID; tofacitinib 10 mg/kg PO BID
[3] = tested on: Alternaria sensitized mice challenged with Alternaria; conditions: Compound 2 500 mg/kg b.i.d., Compound 1 500 mg/kg with 1-ABT 25 mg/kg b.i.d.
[4] = tested on: DNCB-induced atopic dermatitis model; assay: DNCB-induced atopic dermatitis model (Example D)
[5] = tested on: IMQ-induced psoriasis model; assay: Imiquimod (IMQ)-induced psoriasis model (Example E)
[6] = ratio (percentage) of BALF cells, mean ± SD

Which “mean body weight changes (% of Day 0) compared with Vehicle group” value ([1]; Compound 1 500 mg/kg PO BID, Tofacitinib free base 50 mg/kg PO BID, Day 1-14) does the source give for C[C@@H]1CCN(C(=O)CC#N)C[C@@H]1N(C)c1ncnc2[nH]ccc12 [Tofacitinib free base, Tofacitinib] here?
Its value is “significantly higher than that of the Vehicle group from Day 6 to Day 14”.

What about the “Left lung weight” value ([1]; Day 14, mean ± SD) of the same compound?
Its value is 101 ± 9 mg.

What about the Post-caval lobe weight ([1]; Day 14, mean ± SD) of the same compound?
Its Post-caval lobe weight is 27 ± 4.

And the “Right inferior lobe weight” value ([1]; Day 14, mean ± SD)?
The value was 84 ± 14.

What about the Ashcroft score ([1]; Masson's trichrome-stained lung sections, mean ± SD) of the same compound?
The Ashcroft score was 2.2 ± 1.2.

And the “mice found dead during the treatment period” value ([1]; before reaching Day 14)?
The value was “no dead animals”.

What about the “bodyweight” value ([1]; day of sacrifice (Day 14), mean ± SD) of the same compound?
Its value is 18.1 ± 1.7 g.

What about the “BALF IL-6” value ([1]; mean ± SD) of the same compound?
Its value is 4.4 ± 5.5 pg/mL.

And the “Lung hydroxyproline (μg/left lung)” value ([1]; mean ± SD)?
The value was 49.3 ± 8.3 μg/left lung.

What about the “Total cells (×10^4) in BALF” value ([1]; mean ± SD) of the same compound?
The value was 83.8 ± 50.0 ×10^4.

And the “BALF IL-10” value ([1]; mean ± SD, Compound 1 (n = 6), Tofacitinib free base (n = 1))?
The value was 2.9 pg/mL.

And the “mean body weight on the day of sacrifice compared with the Vehicle group” value ([1]; mouse, in vivo)?
Its value is “increasing trend”.

What about the “mean right inferior lobe weight compared with the Vehicle group” value ([1]; mouse, in vivo) of the same compound?
Its value is “significant decreases”.

What about the “total number of cells in BALF compared with the Vehicle group” value ([1]; mouse, in vivo) of the same compound?
The value was “no significant difference”.

What about the “Eosinophil in BALF” value ([1]; ratio (percentage) of BALF cells) of the same compound?
The value was 0.0.

And the “Lymphocyte in BALF” value [1, 6]?
Its value is 11.7 ± 14.5.

What about the “Monocyte in BALF” value [1, 6] of the same compound?
Its value is 88.0 ± 15.2.

And the “Neutrophil in BALF” value [1, 6]?
The value was 0.3 ± 0.9.

What about the “AUC of body weight change, difference to vehicle group” value [2] of the same compound?
Its value is “a statistical difference was not seen”.

And the “AUC of the DAI score in comparison to vehicle” value [2]?
Its value is “suppressed”.

And the “DAI score in comparison to vehicle treated mice” value [2]?
The value was “suppressed”.

What about the “body weight loss compared with vehicle group” value [2] of the same compound?
The value was “suppressed”.

And the “colon density (increase induced by OXZ)” value [2]?
Its value is “also suppressed”.

And the “colon histology (H&E staining) compared to the vehicle group” value [2]?
The value was “appeared similar to the sham group”.

What about the “colon length (reduction induced by OXZ)” value [2] of the same compound?
The value was “also suppressed”.

And the “colon weight (increase induced by OXZ)” value [2]?
The value was “also suppressed”.

What about the “pathological score of colitis severity in comparison to the vehicle control group” value [2] of the same compound?
Its value is “increased integrity of the crypt structure, less inflammatory cell infiltration, reduced muscle thickening and less crypt abscess”.

With O=c1[nH]c(CS[C@H]2CC[C@H](O)CC2)nc2cc(OCC3CC3)cc(F)c12 [Compound 2, 7-(Cyclopropylmethoxy)-5-fluoro-2-(((trans-4-hydroxycyclohexyl)thio)methyl)quinazolin-4(3H)-one] as the compound, how does the “IgE blood serum levels” value [3] read?
The value was “reduced”.

What about the “levels of IL4, IL-5, IL-13, and IL-33 in BAL fluid” value [3] of the same compound?
Its value is “reduced”.

What about the “levels of IL4, IL-5, IL-13, and IL-33 in lung tissue” value [3] of the same compound?
Its value is “reduced”.

And the “levels of eosinophils in BAL fluid” value [3]?
The value was “reduced”.

What about the “levels of neutrophils in BAL fluid” value [3] of the same compound?
The value was “reduced”.

And the “airway mucus in lung tissue” value ([3]; days 19-25)?
The value was “reduced”.

How did the “inhibition rate of clinical scoring (AUC of total clinical score) compared to vehicle” value ([4]; Compound 1 500 mg/kg PO BID, DEX ointment 70 mg topical QD, P<0.0001) turn out when C[C@@H]1C[C@H]2[C@@H]3CCC4=CC(=O)C=C[C@]4(C)[C@@]3(F)[C@@H](O)C[C@]2(C)[C@@]1(O)C(=O)CO [DEX, Dexamethasone] was run?
The value was 43.5%.

And the “total clinical score, peak / high values” ([4]; Compound 1: peak on Day 17, DEX: high clinical scores, vehicle peak 11.9 on Day 17)?
The value was 6-7.

What about the bodyweight ([4]; monitored daily, Compound 1 500 mg/kg PO BID, DEX ointment topical QD) of the same compound?
Its bodyweight is “caused decreases in bodyweight”.

And the “inhibition rate of clinical scoring (AUC of total clinical score)” value ([5]; Compound 1 500 mg/kg PO BID (P<0.001), DEX ointment 70 mg topical QD (P<0.0001))?
The value was 87.7%.

And the bodyweight ([5]; monitored daily, consecutive IMQ treatment and dosing)?
The bodyweight was “caused decreases in bodyweight”.
